This note sets out measurements from PubChem BioAssay AID1259407 (Chemical Carcinogenesis Research Information System (CCRIS), 2018).

The series has as its system CCRIS mutagenicity, Ames/micronucleus/aberration tests. Kind of series: CCRIS mutagenicity studies.
[1] abbreviates: Test System: AMES SALMONELLA TYPHIMURIUM, Strain/Indicator: TA100, Metabolic Activation: NONE, Method: STANDARD PLATE.
Setting [2] is: Test System: AMES SALMONELLA TYPHIMURIUM, Strain/Indicator: TA98, Metabolic Activation: NONE, Method: PREINCUBATION
Where [3] appears, read: Test System: AMES SALMONELLA TYPHIMURIUM, Strain/Indicator: TA100, Metabolic Activation: NONE, Method: PREINCUBATION
Where [4] appears, read: Test System: AMES SALMONELLA TYPHIMURIUM, Strain/Indicator: TA98, Metabolic Activation: RAT, LIVER, S-9, AROCLOR 1254, Method: STANDARD PLATE.
[5] abbreviates: Test System: AMES SALMONELLA TYPHIMURIUM, Strain/Indicator: TA100, Metabolic Activation: RAT, LIVER, S-9, AROCLOR 1254, Method: PREINCUBATION
Where [6] appears, read: Test System: AMES SALMONELLA TYPHIMURIUM, Strain/Indicator: TA100, Metabolic Activation: RAT, LIVER, S-9, AROCLOR 1254, Method: STANDARD PLATE.
Setting [7] is: Test System: AMES SALMONELLA TYPHIMURIUM, Strain/Indicator: TA98, Metabolic Activation: NONE, Method: STANDARD PLATE.

Activity calls are given as the source filed them. How the calls were made is not given here.

`CSCNc1ccccc1`: the mutagenic call was “active; positive” (Test System: AMES SALMONELLA TYPHIMURIUM, Strain/Indicator: TA100, Metabolic Activation: NONE, Method: SPOT TEST); “active; positive” (Test System: AMES SALMONELLA TYPHIMURIUM, Strain/Indicator: TA100, Metabolic Activation: RAT, LIVER, S-9, AROCLOR 1254, Method: SPOT TEST); “active; positive” (Test System: AMES SALMONELLA TYPHIMURIUM, Strain/Indicator: TA102, Metabolic Activation: NONE, Method: SPOT TEST); “active; positive” (Test System: AMES SALMONELLA TYPHIMURIUM, Strain/Indicator: TA102, Metabolic Activation: RAT, LIVER, S-9, AROCLOR 1254, Method: SPOT TEST).

Turning to `C(COCC1CO1)OCC1CO1` (stereo unspecified), the mutagenic call runs as follows: under setting [1], “active; positive”; (Test System: AMES SALMONELLA TYPHIMURIUM, Strain/Indicator: TA1535, Metabolic Activation: NONE, Method: STANDARD PLATE) “active; positive”.

Take `N[C@@H](CSC(F)(F)C(F)(F)C(F)F)C(=O)O`: the mutagenic call (Test System: AMES SALMONELLA TYPHIMURIUM, Strain/Indicator: TA100, Metabolic Activation: RAT, KIDNEY, S-9, AROCLOR 1254, Method: STANDARD PLATE) was “inactive; negative”.

`CCCCCCCCOC(=O)c1ccccc1C(=O)OCCCCCCCC`: the mutagenic call runs as follows: (Test System: AMES SALMONELLA TYPHIMURIUM, Strain/Indicator: TA98, Metabolic Activation: HAMSTER, LIVER, S-9, AROCLOR 1254 (10%), Method: PREINCUBATION) “inactive; negative”; under setting [2], “inactive; negative”; (Test System: AMES SALMONELLA TYPHIMURIUM, Strain/Indicator: TA98, Metabolic Activation: RAT, LIVER, S-9, AROCLOR 1254 (10%), Method: PREINCUBATION) “inactive; negative”; (Test System: AMES SALMONELLA TYPHIMURIUM, Strain/Indicator: TA100, Metabolic Activation: HAMSTER, LIVER, S-9, AROCLOR 1254 (10%), Method: PREINCUBATION) “inactive; negative”; under setting [3], “inactive; negative”; (Test System: AMES SALMONELLA TYPHIMURIUM, Strain/Indicator: TA100, Metabolic Activation: RAT, LIVER, S-9, AROCLOR 1254 (10%), Method: PREINCUBATION) “inactive; negative”. Further, the mutagenic call runs as follows: (Test System: AMES SALMONELLA TYPHIMURIUM, Strain/Indicator: TA1535, Metabolic Activation: HAMSTER, LIVER, S-9, AROCLOR 1254 (10%), Method: PREINCUBATION) “inactive; negative”; (Test System: AMES SALMONELLA TYPHIMURIUM, Strain/Indicator: TA1535, Metabolic Activation: NONE, Method: PREINCUBATION) “inactive; negative”; (Test System: AMES SALMONELLA TYPHIMURIUM, Strain/Indicator: TA1535, Metabolic Activation: RAT, LIVER, S-9, AROCLOR 1254 (10%), Method: PREINCUBATION) “inactive; negative”; (Test System: AMES SALMONELLA TYPHIMURIUM, Strain/Indicator: TA1537, Metabolic Activation: HAMSTER, LIVER, S-9, AROCLOR 1254 (10%), Method: PREINCUBATION) “inactive; negative”; (Test System: AMES SALMONELLA TYPHIMURIUM, Strain/Indicator: TA1537, Metabolic Activation: NONE, Method: PREINCUBATION) “inactive; negative”; (Test System: AMES SALMONELLA TYPHIMURIUM, Strain/Indicator: TA1537, Metabolic Activation: RAT, LIVER, S-9, AROCLOR 1254 (10%), Method: PREINCUBATION) “inactive; negative”.

On to `Cc1nn(C)c(NC(=O)CNCCCN2CCCCC2C)c1C(=O)c1ccccc1F` (stereo unspecified), for which the mutagenic call was “active; positive” (Test System: AMES SALMONELLA TYPHIMURIUM, Strain/Indicator: TA98, Metabolic Activation: RAT, LIVER, S-9, AROCLOR 1254, Method: PREINCUBATION); “inactive; negative” under setting [4]; “active; positive” under setting [5]; “inactive; negative” under setting [6].

For `Cc1ccc(C)c2c3c(ccc12)C(O)C(O)C1OC31` (stereo unspecified), the mutagenic call is “active; positive” under setting [7] and “active; positive” under setting [1].

With `O=[N+]([O-])c1ccccc1CBr`, the mutagenic call under setting [2] was “inactive; negative”, the mutagenic call under setting [3] was “inactive; negative” and the mutagenic call under setting [5] is “inactive; negative”.

As to `O=CC(=O)c1ccccc1`, the mutagenic call is, setting by setting: (Test System: AMES SALMONELLA TYPHIMURIUM, Strain/Indicator: TA98, Metabolic Activation: HAMSTER, LIVER, S-9, AROCLOR 1254, Method: STANDARD PLATE) “active; positive”; under setting [2], “inactive; negative”; under setting [7], “active; positive”; under setting [4], “active; positive”; (Test System: AMES SALMONELLA TYPHIMURIUM, Strain/Indicator: TA98, Metabolic Activation: RAT, LIVER, S-9, PCB, Method: PREINCUBATION) “inactive; negative”; (Test System: AMES SALMONELLA TYPHIMURIUM, Strain/Indicator: TA100, Metabolic Activation: HAMSTER, LIVER, S-9, AROCLOR 1254, Method: STANDARD PLATE) “active; positive”. In addition, the mutagenic call was “active; positive” under setting [3]; “active; positive” under setting [1]; “active; positive” under setting [6]; “inactive; negative” (Test System: AMES SALMONELLA TYPHIMURIUM, Strain/Indicator: TA100, Metabolic Activation: RAT, LIVER, S-9, PCB, Method: PREINCUBATION); “active; positive” (Test System: MOUSE LYMPHOMA, Strain/Indicator: L5178Y (TK+/TK-), Metabolic Activation: NONE, Method: SUSPENSION/PLATE); “active; positive” (Test System: Mouse lymphoma, Strain/Indicator: L5178Y (tk+/tk-), Metabolic Activation: None, Method: Suspension/plate). Further, under “Test System: Mouse lymphoma, Strain/Indicator: L5178Y (tk+/tk-), Metabolic Activation: Rat, Liver, S-9, Aroclor 1254, Method: Suspension/plate”, the mutagenic call was “inactive; negative”.
